In ChEMBL document CHEMBL4251625, “Efficacy of 2-hydroxy-3-phenylsulfanylmethyl-[1,4]-naphthoquinone derivatives against different Trypanosoma cruzi discrete type units: Identification of a promising hit compound” (Eur J Med Chem, 2018):

Assays:
[1] = Cytotoxicity activity against Swiss Webster mouse primary hepatocytes assessed as reduction in cell viability after 72 hrs by cell-titer-glo assay; format: cell-based, Hepatocyte
[2] = Cytotoxicity activity against African green monkey Vero cells assessed as reduction in cell viability after 72 hrs by cell-titer-glo assay; format: cell-based; conditions: chlorocebus sabaeus
[3] = test system: Trypanosoma cruzi; assay: Trypanocidal activity against Trypanosoma cruzi Y trypomastigotes infected in monkey LLC-MK2 cells after 24 hrs by cell-titer-glo assay; format: functional, organism-based; conditions: for IC50: LLC-MK2, 24 h; for IC90: LLC-MK2, in Primates, 24 h
[4] = test system: Trypanosoma cruzi; assay: Trypanocidal activity against infected Swiss Webster mouse derived bloodstream form of Trypanosoma cruzi Y after 24 hrs by cell-titer-glo assay; format: functional, organism-based
[5] = Therapeutic index, ratio of CC50 for African green monkey Vero cells to IC50 for Trypanosoma cruzi Y trypomastigotes infected in monkey LLC-MK2 cells; format: toxicity, cell-based; conditions: read-out: Ratio CC50/IC50
[6] = Therapeutic index, ratio of CC50 for African green monkey Vero cells to IC50 for infected Swiss Webster mouse derived bloodstream form of Trypanosoma cruzi Y; format: toxicity; conditions: read-out: Ratio CC50/IC50
[7] = test system: Trypanosoma cruzi; assay: Trypanocidal activity against Trypanosoma cruzi Brazil trypomastigotes infected in monkey LLC-MK2 cells after 24 hrs by luminescent assay; format: functional, organism-based
[8] = test system: Trypanosoma cruzi; assay: Trypanocidal activity against Trypanosoma cruzi CL trypomastigotes infected in monkey LLC-MK2 cells after 24 hrs by luminescent assay; format: functional, organism-based; conditions: CL Brener
[9] = test system: Trypanosoma cruzi; assay: Trypanocidal activity against Trypanosoma cruzi Dm28c trypomastigotes infected in monkey LLC-MK2 cells after 24 hrs by luminescent assay; format: functional, organism-based
[10] = test system: Trypanosoma cruzi; assay: Trypanocidal activity against Trypanosoma cruzi Dm28c intracellular amastigotes infected in African green monkey Vero cells after 72 hrs; format: functional, organism-based
[11] = Therapeutic index, ratio of CC50 for African green monkey Vero cells to IC50 for Trypanosoma cruzi Dm28c intracellular amastigotes infected in African green monkey Vero cells; format: toxicity, cell-based; conditions: read-out: Ratio CC50/IC50
[12] = test system: Trypanosoma cruzi; assay: Trypanocidal activity against Trypanosoma cruzi Y intracellular amastigotes infected in Swiss Webster mouse cardiomyocytes after 72 hrs; format: functional, organism-based
[13] = Cytotoxicity against Swiss Webster mouse cardiomyocytes after 72 hrs; design: species or system Cardiac Muscle Cell
[14] = Therapeutic index, ratio of CC50 for Swiss Webster mouse cardiomyocytes to IC50 for Trypanosoma cruzi Y intracellular amastigotes infected in Swiss Webster mouse cardiomyocytes; format: toxicity, cell-based; conditions: read-out: Ratio CC50/IC50

Structure (SMILES)	CC50 at 72 h [1] [µM]	CC50 at 72 h [2] [µM]	IC50 [3] [µM]	IC90 [3] [µM]	IC50 [4] [µM]	IC90 [4] [µM]	selectivity ratio [5]	selectivity ratio [6]	IC50 ([7]; LLC-MK2, 24 h) [µM]	IC90 ([7]; LLC-MK2, in Primates, 24 h) [µM]	IC50 ([8]; LLC-MK2, 24 h) [µM]	IC90 ([8]; LLC-MK2, in Primates, 24 h) [µM]	IC50 ([9]; LLC-MK2, 24 h) [µM]	IC90 ([9]; LLC-MK2, in Primates, 24 h) [µM]	IC50 [10] [µM]	IC90 [10] [µM]	selectivity ratio [11]	IC50 [12] [µM]	CC50 at 72 h [13] [µM]	selectivity ratio [14]
O=C(Cn1ccnc1[N+](=O)[O-])NCc1ccccc1 [BENZNIDAZOLE]	> 500	366	29.8	68.5	18.1	> 100	12.2	20.2	93.3	> 100	69.3	> 100	24.7	92.3	4.39	24.9	83.2	1.1	> 500	> 455
O=C1C=C(O)C(=O)c2ccccc21 [LAWSONE]	> 500	214	> 100	> 100	> 100	> 100	–	–	–	–	–	–	–	–	89	> 100	2.39	–	–	–
